In general, pKi refers to the Ki on a negative log10 scale, so that one unit is a factor of ten. A low value points to a high Ki.

The target of the assay is T1, P2X7 (UniProt Q99572).
T1 sequence (Q99572 1-595): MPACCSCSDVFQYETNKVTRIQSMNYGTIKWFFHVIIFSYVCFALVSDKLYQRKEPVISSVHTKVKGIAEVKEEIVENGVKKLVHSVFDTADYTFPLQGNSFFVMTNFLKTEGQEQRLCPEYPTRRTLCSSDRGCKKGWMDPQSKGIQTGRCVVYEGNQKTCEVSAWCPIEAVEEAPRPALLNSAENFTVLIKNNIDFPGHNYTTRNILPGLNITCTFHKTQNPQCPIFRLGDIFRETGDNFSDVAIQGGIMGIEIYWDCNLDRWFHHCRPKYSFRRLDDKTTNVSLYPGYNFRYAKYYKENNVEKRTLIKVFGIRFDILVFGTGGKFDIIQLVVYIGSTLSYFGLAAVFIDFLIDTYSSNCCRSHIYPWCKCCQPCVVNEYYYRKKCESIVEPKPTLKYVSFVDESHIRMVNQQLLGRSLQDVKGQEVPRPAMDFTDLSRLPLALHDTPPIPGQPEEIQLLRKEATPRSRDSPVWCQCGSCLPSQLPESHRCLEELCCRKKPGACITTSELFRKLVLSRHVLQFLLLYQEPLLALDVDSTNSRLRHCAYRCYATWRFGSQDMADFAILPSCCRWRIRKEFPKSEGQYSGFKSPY
The assay is described as follows: P2X7 pKi of Table 1. The assay is classed as cell-based. Put shortly: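 Human P2X7 in 1321N1 cells and rat P2X7 in HEK293 cells, loaded with fluo-3 for 1 hr at 37° C, then exposed to antagonist for 20 min at room temperature. BzATP agonist was used at 100 μM final (human) or 5 μM final (rat), with fluorescence read for 5 min. The response was normalized to maximal fluorescence evoked by 5 μM ionomycin.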
Turning to `COc1cc(NC(=O)C2=CNC(=O)C[C@H]2c2ccc(F)cc2)ccc1F` [Compound 108, (S)-4-(4-Fluoro-phenyl)-6-oxo-1,4,5,6-tetrahydro-pyridine-3-carboxylic acid(4-fluoro-3-methoxy-phenyl)-amide], the pKi came to 6.11. Next, `COc1cc(NC(=O)C2=CNC(=O)C[C@H]2c2cccc(F)c2)c(C)cc1F` [Compound 82, (S)-4-(3-Fluoro-phenyl)-6-oxo-1,4,5,6-tetrahydro-pyridine-3-carboxylic acid(4-fluoro-5-methoxy-2-methyl-phenyl)-amide]: 7.975; `Cc1cc(CCO)ccc1NC(=O)C1=CNC(=O)C[C@H]1c1ccc(F)cc1` [Compound 105, (S)-4-(4-Fluoro-phenyl)-6-oxo-1,4,5,6-tetrahydro-pyridine-3-carboxylic acid[4-(2-hydroxy-ethyl)-2-methyl-phenyl]-amide]: 6.77; `COc1cc(Br)c(NC(=O)C2=CN(C)C(=O)C[C@H]2c2ccc(F)cc2)cc1OC` [Compound 44, (S)-4-(4-Fluoro-phenyl)-1-methyl-6-oxo-1,4,5,6-tetrahydro-pyridine-3-carboxylic acid(2-bromo-4,5-dimethoxy-phenyl)-amide]: 5.875. Under `COc1cc(C)c(NC(=O)C2=CNC(=O)C[C@H]2c2ccc(Cl)cc2)cc1OC` [Compound 131, (S)-4-(4-Chloro-phenyl)-6-oxo-1,4,5,6-tetrahydro-pyridine-3-carboxylic acid (4,5-dimethoxy-2-methyl-phenyl)-amide] stands 6.165. `O=C1CC(c2cccc(F)c2)C(C(=O)Nc2cc(O)ccc2Cl)=CN1` (centres unmarked) [Compound 25, 4-(3-Fluoro-phenyl)-6-oxo-1,4,5,6-tetrahydro-pyridine-3-carboxylic acid(2-chloro-5-hydroxy-phenyl)-amide] registered a pKi of 5.395. Next, `Cc1cc(Cl)c(CCO)cc1NC(=O)C1=CNC(=O)C[C@H]1c1ccc(F)cc1` [Compound 112, (S)-4-(4-Fluoro-phenyl)-6-oxo-1,4,5,6-tetrahydro-pyridine-3-carboxylic acid[4-chloro-5-(2-hydroxy-ethyl)-2-methyl-phenyl]-amide]: 7.52; `Cc1ccc(Cl)c(NC(=O)C2=CNC(=O)CC2c2cccc(F)c2)c1F` (centres unmarked) [Compound 26, 4-(3-Fluoro-phenyl)-6-oxo-1,4,5,6-tetrahydro-pyridine-3-carboxylic acid(6-chloro-2-fluoro-3-methyl-phenyl)-amide]: 5.73; `COc1cc(C)c(NC(=O)C2=C(C)NC(=O)CC2c2ccc(F)cc2)cc1OC` (centres unmarked) [Compound 126, 4-(4-Fluoro-phenyl)-2-methyl-6-oxo-1,4,5,6-tetrahydro-pyridine-3-carboxylic acid (4,5-dimethoxy-2-methyl-phenyl)-amide]: 6.48.

Take `Cc1ccccc1NC(=O)C1=CNC(=O)C[C@H]1c1ccc(F)cc1` [Compound 101, (S)-4-(4-Fluoro-phenyl)-6-oxo-1,4,5,6-tetrahydro-pyridine-3-carboxylic acid o-tolylamide]: the negative-log Ki (pKi) came out at 6.415.

Consider `Cc1cc(Cl)c(OCCO)cc1NC(=O)C1=CNC(=O)C[C@H]1c1ccc(F)cc1` [Compound 73, (S)-4-(4-Fluoro-phenyl)-6-oxo-1,4,5,6-tetrahydro-pyridine-3-carboxylic acid[4-chloro-5-(2-hydroxy-ethoxy)-2-methyl-phenyl]-amide], for which the pKi amounted to 7.63. Next, `O=C1C[C@@H](c2ccc(F)cc2)C(C(=O)NCc2ccccc2Cl)=CN1` [Compound 97, (S)-4-(4-Fluoro-phenyl)-6-oxo-1,4,5,6-tetrahydro-pyridine-3-carboxylic acid 2-chloro-benzylamide]: 6.16; `COc1cc(Br)c(NC(=O)C2=CNC(=O)C[C@H]2c2ccccc2)cc1OC` [Compound 13, (S)-6-Oxo-4-phenyl-1,4,5,6-tetrahydro-pyridine-3-carboxylic acid(2-bromo-4,5-dimethoxy-phenyl)-amide]: 7.455. Next, `Cc1c(NC(=O)C2=CNC(=O)C[C@H]2c2ccc(F)cc2)cc(OCCO)c(F)c1F` [Compound 121, (S)-4-(4-Fluoro-phenyl)-6-oxo-1,4,5,6-tetrahydro-pyridine-3-carboxylic acid [3,4-difluoro-5-(2-hydroxy-ethoxy)-2-methyl-phenyl]-amide]: 7.41.

With `COc1cc(NC(=O)C2=CNC(=O)C[C@@H]2c2cccc(F)c2)c(Br)cc1C` [Compound 29, (R)-4-(3-Fluoro-phenyl)-6-oxo-1,4,5,6-tetrahydro-pyridine-3-carboxylic acid(2-bromo-5-methoxy-4-methyl-phenyl)-amide], the pKi stood at 6.405.

The compound `COC(=O)COc1cc(NC(=O)C2=CNC(=O)C[C@H]2c2ccc(F)cc2)c(C)cc1Cl` [Compound 125, (2-Chloro-5-{[(S)-4-(4-fluoro-phenyl)-6-oxo-1,4,5,6-tetrahydro-pyridine-3-carbonyl]-amino}-4-methyl-phenoxy)-acetic acid methyl ester] displayed a pKi of 7.645. Next, `Cc1ccc(Cl)cc1NC(=O)C1=CNC(=O)C[C@H]1c1cccc(F)c1` [Compound 92, (S)-4-(3-Fluoro-phenyl)-6-oxo-1,4,5,6-tetrahydro-pyridine-3-carboxylic acid(5-chloro-2-methyl-phenyl)-amide]: 6.995. Under `COc1cc(Br)c(NC(=O)C2=CNC(=O)C[C@@H]2c2ccccc2)cc1OC` [Compound 12, (R)-6-Oxo-4-phenyl-1,4,5,6-tetrahydro-pyridine-3-carboxylic acid(2-bromo-4,5-dimethoxy-phenyl)-amide] stands 6.155; under `Cc1cc(Cl)c(OCC(C)O)cc1NC(=O)C1=CNC(=O)C[C@H]1c1cccc(F)c1` (stereo partly drawn) [Compound 116, (S)-4-(3-Fluoro-phenyl)-6-oxo-1,4,5,6-tetrahydro-pyridine-3-carboxylic acid[4-chloro-5-(2-hydroxy-propoxy)-2-methyl-phenyl]-amide], 7.21; under `Cc1cc(Cl)c(OCCO)cc1NC(=O)C1=CNC(=O)CC1c1cccc(F)c1` (centres unmarked) [Compound 62, 4-(3-Fluoro-phenyl)-6-oxo-1,4,5,6-tetrahydro-pyridine-3-carboxylic acid [4-chloro-5-(2-hydroxy-ethoxy)-2-methyl-phenyl]-amide], 7.595. Under `Cc1ccc(NC(=O)C2=CNC(=O)C[C@H]2c2cccc(F)c2)cc1C(C)O` (stereo partly drawn) [Compound 120, (S)-4-(3-Fluoro-phenyl)-6-oxo-1,4,5,6-tetrahydro-pyridine-3-carboxylic acid[3-(1-hydroxy-ethyl)-4-methyl-phenyl]-amide] stands 6.635; under `Cc1cc(Cl)c(OCC(C)O)cc1NC(=O)C1=CNC(=O)CC1c1cccc(F)c1` (centres unmarked) [Compound 77, 4-(3-Fluoro-phenyl)-6-oxo-1,4,5,6-tetrahydro-pyridine-3-carboxylic acid[4-chloro-5-(2-hydroxy-propoxy)-2-methyl-phenyl]-amide], 7.375. On to `Cc1cc(Cl)c(CO)cc1NC(=O)C1=CNC(=O)C[C@H]1c1ccc(F)cc1` [Compound 104, (S)-4-(4-Fluoro-phenyl)-6-oxo-1,4,5,6-tetrahydro-pyridine-3-carboxylic acid(4-chloro-5-hydroxymethyl-2-methyl-phenyl)-amide], for which the pKi amounted to 7.21. Next, `Cc1cccc(NC(=O)C2=CNC(=O)C[C@H]2c2ccc(F)cc2)c1Cl` [Compound 103, (S)-4-(4-Fluoro-phenyl)-6-oxo-1,4,5,6-tetrahydro-pyridine-3-carboxylic acid(2-chloro-3-methyl-phenyl)-amide]: 7.44; `O=C1CC(c2cccc(F)c2)C(C(=O)Nc2c(F)cc(F)cc2Cl)=CN1` (centres unmarked) [Compound 28, 4-(3-Fluoro-phenyl)-6-oxo-1,4,5,6-tetrahydro-pyridine-3-carboxylic acid(2-chloro-4,6-difluoro-phenyl)-amide]: 5.215. In turn, `Cc1cc2c(cc1NC(=O)C1=CNC(=O)C[C@H]1c1ccc(F)cc1)OCCO2` [Compound 140, (S)-4-(4-Fluoro-phenyl)-6-oxo-1,4,5,6-tetrahydro-pyridine-3-carboxylic acid(7-methyl-2,3-dihydro-benzo[1,4]dioxin-6-yl)-amide] gave a pKi of 6.94.

For `Cc1c(F)cccc1NC(=O)C1=CNC(=O)C[C@H]1c1ccc(F)cc1` [Compound 87, (S)-4-(4-Fluoro-phenyl)-6-oxo-1,4,5,6-tetrahydro-pyridine-3-carboxylic acid(3-fluoro-2-methyl-phenyl)-amide], the pKi amounted to 6.63. Next, `Cc1cc(Cl)c(OCCO)cc1NC(=O)C1=CNC(=O)CC1c1ccc(F)cc1` (centres unmarked) [Compound 61, 4-(4-Fluoro-phenyl)-6-oxo-1,4,5,6-tetrahydro-pyridine-3-carboxylic acid [4-chloro-5-(2-hydroxy-ethoxy)-2-methyl-phenyl]-amide]: 7.755; `COc1cc(C)c(NC(=O)C2=CN(CCO)C(=O)CC2c2ccc(F)cc2)cc1OC` (centres unmarked) [Compound 79, 4-(4-Fluoro-phenyl)-1-(2-hydroxy-ethyl)-6-oxo-1,4,5,6-tetrahydro-pyridine-3-carboxylic acid(4,5-dimethoxy-2-methyl-phenyl)-amide]: 7.42.
